The numbers were not newly measured in patent US20090029375A1, “GENETIC MODELS FOR STRATIFICATION OF CANCER RISK” (Intergenetics, Inc., priority 2007, published 2009), which cites them from elsewhere.

In one data set the test system is estrogen receptors. The settings on record: preclinical data, uterine and breast tissues.
A further data set relates to breast cancer. The settings on record: osteoporosis prevention/treatment study.
The test system of data set [1] is rat mammary carcinoma induced by dimethylbenzanthracene (DMBA).

Consider `O=C(c1ccc(OCCN2CCCCC2)cc1)c1c(-c2ccc(O)cc2)sc2cc(O)ccc12` [raloxifene], for which the estrogen antagonism result in the data set on estrogen receptors is listed as “estrogen antagonist”. Besides, the “effect on incidence of breast cancer” value in the data set on breast cancer is reported as “reduce the incidence of breast cancer”.

Consider `CC/C(=C(\c1ccccc1)c1ccc(OCCN(C)C)cc1)c1ccccc1` [tamoxifen], for which, in data set [1], the “induction of rat mammary carcinoma” value is “inhibits the induction”.
